Reference: patent publication US20240207403A1, “PERSONALIZED IMMUNOTHERAPY USING INTESTINAL METABOLITES” (Evolve Biosystems, Inc., priority 2021, published 2024)

Columns and labels:
[1] = target: hydrocarboxylic acid receptor 3 (HCAR3) (Homo sapiens, UniProt P49019); details: bifidobacteria-derived ILA; cited from earlier work
[2] = test system: Aryl hydrocarbon Receptor (AhR); details: bifidobacteria-derived ILA; cited from earlier work
naïve CD4+ T-cells = test: In vitro polarization of naïve CD4+ T-cells with fecal water, ILA or IFNβ, read out by targeted sc-mRNA-seq; assay type: cell-based, human; details: for LGALS1 (Galectin-1) in Th0, Th2 and Th17 cells: ILA alone (1 mM) during polarization
Experimental: To evaluate the cellular states of polarized T-cells, the inventors applied a targeted multiomics approach quantifying 259 mRNA molecules with known functions in T-cells and 10 surface proteins detected by oligo-coupled antibodies (Abseq™, Rhapsody™, BD Biosciences) (Mair et al., 2020).
T-cell polarization experiments. PBMC derived CD3 CD4 CD45RA″ naïve T-cells (CD8/14/19/56 negative) into an enriched culture medium including RPMI 1640+10% FBS+NEAA+1% Pen-strep+55 μM β-mercaptoethanol. Cells are added at a concentration of 2×10^5 cells/ml and pre-washed and resuspended 2.5 ml T-Activator Dynabeads are added to obtain a bead:cell ratio of 1:2. One milliliter of bead/cell suspension was added to 24-well plate and the following polarizing supplements Th0: No cytokines, Th1: IL-12 (50 nanogram (ng)/ml), Anti-human IL-4 antibody (1 μg/ml) Th2: IL-4 (10 ng/ml), Anti-human IFN-γ antibody (1 μg/ml), Th17: IL-6 (50 ng/ml), IL-23 (20 ng/ml), IL-1B (10 ng/ml), TGF-β1 (5 ng/ml), Anti-hum IL-4 (1 μg/ml), Anti-human IFN-γ antibody (1 μg/ml), iTreg: TGF-β1 (5 ng/ml), IL-2 (10 ng/ml) IFN-β: IFN-β (10 ng/ml). Cells are incubated at 37 °C, 5% CO2 humidified incubator for 5 days and harvested.
Targeted transcriptome and protein by BD Rhapsody single cell RNA Sequencing. Polarized T cells in each condition were labeled using BD Single-Cell Multiplexing Kit and BD AbSeq Ab-Oligos reagents strictly following the manufacturers protocol (BD Biosciences). Briefly, cells from each experiment condition were labelled with each sample tag and pooled 18 AbSeqAb-Oligos. Each sample was then washed twice, counted and resuspended in cold BD SampleBuffer, then calculated the cell number in each sample, then pooled the required number of cells from each sample to get approximately 20,000 cells in 620 μl for each cartridge (around 9 samples for each cartridge). After priming the nanowell cartridges, the pooled sample was loaded onto BDRhapsody cartridges and incubated at room temperature. Cell Capture Beads were prepared and then loaded onto the cartridge. According to the manufacturers protocol, cartridges were washed, cells were lysed, and Cell Capture Beads were retrieved and washed prior to performing reverse transcription and treatment with Exonuclease I. cDNA Libraries were prepared using mRNA Targeted, Sample Tag, and BD AbSeq Library Preparation with the BD Rhapsody Targeted mRNA and AbSeq Amplification Kits and protocol. […] Quality and quantity of PCR products were determined by using an Agilent 2100 Bioanalyzer and Qubit Fluorometer using the Qubit dsDNA HS Kit (ThermoFisher). […] Quality of final libraries was assessed by using Agilent Bioanalyzer and quantified using a Qubit Fluorometer. […]

[3] = ILA alone (1 mM) instead of fecal water

Sequence of hydrocarboxylic acid receptor 3 (HCAR3) (P49019 whole entry): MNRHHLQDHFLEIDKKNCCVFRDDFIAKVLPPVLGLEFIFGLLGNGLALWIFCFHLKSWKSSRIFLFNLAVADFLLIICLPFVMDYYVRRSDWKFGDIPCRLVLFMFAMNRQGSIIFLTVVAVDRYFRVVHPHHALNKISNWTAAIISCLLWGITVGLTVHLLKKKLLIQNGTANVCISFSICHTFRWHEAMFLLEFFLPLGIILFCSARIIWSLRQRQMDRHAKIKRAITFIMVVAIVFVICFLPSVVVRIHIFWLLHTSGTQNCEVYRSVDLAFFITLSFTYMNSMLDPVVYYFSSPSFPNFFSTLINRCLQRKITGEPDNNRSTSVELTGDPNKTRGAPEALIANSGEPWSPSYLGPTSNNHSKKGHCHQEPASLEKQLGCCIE

## O=C(O)C(O)Cc1c[nH]c2ccccc12 (stereo not drawn) [ILA, Indole-3-lactic acid]
[1]
  binding to HCAR3: bind
[2]
  binding to AhR: bind
naïve CD4+ T-cells
  LGALS1 (Galectin-1) in Th0, Th2 and Th17 cells: strongly upregulated
naïve CD4+ T-cells; listed as indole-3-lactic acid
  LGALS1 (Galectin-1) in Th0, Th2 and Th17 cells: upregulated
naïve CD4+ T-cells; [3]
  CXCR3 mRNA in Th0, Th2 and Th17 cells: upregulated
  granzyme B mRNA in Th0, Th2 and Th17 cells: upregulated
